# According to the METLIN SMRT retention time set (Domingo-Almenara et al. 2019):
# Assay: gradient 5% acetonitrile 3 min, to 50% in 2 min, to 85% in 15 min, held 3 min, 100 µL/min
# Details: column: Zorbax Extend-C18 2.1 x 50 mm; eluents: water / acetonitrile, 0.1% formic acid
# Procedure, shortened: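 Pure standards were run in mixtures of ~100 molecules by HPLC coupled to a quadrupole time-of-flight mass spectrometer. The column was a Zorbax Extend-C18 (2.1 × 50 mm, 1.8 μm) at 100 μL/min, with water and acetonitrile each containing 0.1% formic acid, in positive and negative ionization mode. Dead and dwell volumes were 40 μL and 900 μL. Retention time was taken from computationally picked adduct peaks, each manually inspected, with data collected over 3 months.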
row,Compound,RP-LC retention time
1,Cc1nc(OCC(=O)NC2CCCCC2)c2c(-c3cccc(F)c3)noc2n1,990 s
2,CCCc1ccc(S(=O)(=O)N2CCC3(CC2)CN(C)CC3c2nnc(CC)o2)cc1 (stereo not given),692 s
3,Cc1ccc2[nH]cc(CCN3CC(C(=O)Nc4ccc(F)c(Cl)c4)CC3=O)c2c1 (stereo not given),899 s
4,O=C(NCc1cccs1)C1CCCN(S(=O)(=O)c2cc(-c3noc(C4CCC4)n3)cs2)C1 (stereo not given),1070 s
5,CCOCCCNC(=O)C1CCCN(c2nc3ccccc3n(Cc3ccc(C)cc3)c2=O)C1 (stereo not given),1080 s
6,Cn1cc(S(=O)(=O)N2CCCCC2)cc1C(=O)Nc1cccc(F)c1,1020 s
7,CC(=O)N1CCCSc2ccc(S(=O)(=O)N3CCN(c4cccc(C)c4)C(C)C3)cc21 (stereo not given),982 s
8,COc1ccc(N2CC(c3noc(-c4ccc(OC)cc4C)n3)CC2=O)cc1 (stereo not given),992 s
9,CCC(C)C(=O)NC1CCN(C2=NS(=O)(=O)C(c3ccc(F)cc3)=C2C)CC1 (stereo not given),785 s
10,COc1ccc(Cl)cc1NC(=O)N1CCC(C(=O)Nc2nccs2)CC1,764 s
11,CCOc1ccc(N2C(=O)N[C@@H]3C[C@]2(C)Oc2ccc(OC)cc23)cc1,864 s
12,COCCn1ccc2c(OCC(=O)N(C(C)C)C(C)C)cccc2c1=O,798 s
13,CCn1ccc(C(=O)N2CCC(c3nc(-c4ccncc4)no3)C2)n1 (stereo not given),640 s
14,Cc1cccc(C)c1NC(=O)CN1CCCC1,633 s
15,CC(C)NC(=O)c1ccc(OCC2CCCN(C(=O)c3ccc(F)c(Cl)c3)C2)cc1 (stereo not given),915 s
16,O=C(O)c1cc(Nc2ccc(F)cc2)c2cccc(Cl)c2n1,624 s
17,Cn1ncc2c(N3CCSCC3)nc(C(=O)NCc3ccccn3)nc21,592 s
18,CCOCCCN1C(=O)c2cc(-c3ccccc3)nn2CC1(C)C(=O)NCc1ccccc1 (stereo not given),914 s
19,CC(C)(CO)NCc1ccc(-c2ccc(F)c(Cl)c2)o1,644 s

row,Compound,RP-LC retention time
1,Cc1ccc2nc(Nc3ncc4c(n3)CC(C)CC4=O)nc(C)c2c1 (stereo not given),651 s
2,COc1cc2c(cc1OC)C1C(C(=O)NCCN3CCOCC3)c3ccccc3C(=O)N1CC2 (stereo not given),590 s
3,Cc1ccc(NC(=O)c2cn(-c3cc(-c4nc(C5CC5)no4)ccn3)cn2)c(C)c1,1090 s
4,CCn1ncn2cc(S(=O)(=O)Nc3ccc(F)c(F)c3)cc2c1=O,884 s
5,CCc1ccccc1S(=O)(=O)N1CCC(N2CCN(Cc3ccc(C)cc3)C(=O)C2=O)CC1,955 s
6,COc1cc(CCC(=O)O)on1,658 s
7,O=C(CSc1cc(N2CCN(c3ccccc3F)CC2)ncn1)NC1CCCC1,963 s
8,C/C=C1\C2C=C(C)C[C@]1(N)c1ccc(=O)[nH]c1C2,578 s
9,Cc1cccc(Nc2nc(C)c(C(=O)N3CCN(c4ccccc4)CC3)s2)n1,884 s
10,Cc1ccc(-n2nnc(C(=O)O)c2C)c(F)c1,705 s
11,Cc1cccc(C)c1NC(=O)N1CCN(CCn2c(C(C)C)nc3cccnc32)CC1,602 s
12,O=C(Cc1nnc2cc(-c3nc(C4CC4)no3)ccn12)NC1CCCCCC1,741 s
13,CCN1C(=O)c2ccccc2Oc2ccc(C(=O)NCc3ccco3)cc21,843 s
14,O=C([C@@H]1C[C@H](F)CN1C(=O)c1ccco1)N1CCCCC1,626 s
15,CC1=C(c2ccccc2)S(=O)(=O)N=C1N1CCCN(C(=O)c2ccc(F)cc2F)CC1,835 s
16,O=C(c1nnc(-c2ccc(S(=O)(=O)N3CCOCC3)cc2)o1)N1CCc2ccccc2C1,917 s
17,CC1Cc2cc(S(=O)(=O)N3CCN(c4ccccn4)CC3)ccc2N1C(=O)C1CC1 (stereo not given),668 s
18,CCN1C(=O)c2cccnc2Sc2cc(CNC(=O)COc3ccccc3)ccc21,798 s
19,Cc1cc(C(=O)Nc2nc(-c3cc4ccccc4o3)cs2)on1,948 s

row,Compound,RP-LC retention time
1,CN(CCNC(=O)c1sc2ncccc2c1-n1cccc1)Cc1ccccc1,666 s
2,COC[C@@H]1CN(c2cnccn2)C[C@H]1C(=O)NCc1ccc(C)o1,636 s
3,OC1CCOC2(CCN(Cc3ccccc3OC(F)(F)F)CC2)C1 (stereo not given),602 s
4,O=C(NC1CC1)C1CCCN(C(=O)c2ccccc2)C1 (stereo not given),619 s
5,CCC(C)NC(=O)c1cc(C)nc2ccc(F)cc12 (stereo not given),680 s
6,CCCC(=O)Nc1nc2ccc(CCC(=O)N3CCN(c4ccccn4)CC3)cc2s1,603 s
7,O=c1ccn(-c2cccc(F)c2)nc1-c1nc(-c2ccc(OCc3ccccc3)cc2)no1,1070 s
8,CCN(CC)c1ncc2c(n1)CCC(C(=O)Nc1ccc(N3CCOCC3)cc1)C2 (stereo not given),641 s
9,COc1ccc(C2C(C(=O)NCCC(C)C)CCC(=O)N2c2cc(OC)c(OC)c(OC)c2)cc1 (stereo not given),744 s
10,O=C(CN1C(=O)NC2(CCCCC2)C1=O)Nc1ccc(Br)cc1F,826 s
11,Cc1ccc(C)c(N2CCN(Cc3nc(-c4ccc(N5CCC(C)CC5)nc4)no3)CC2)c1,1270 s
12,Cc1[nH]nc(-c2c(C)sc(C)c2S(=O)(=O)N2CCc3ccccc3C2)c1C,975 s
13,CSc1ccc(-c2nc3nc(C)cc(C)n3c2Nc2ccccc2C)cc1,785 s
14,O=C([C@@H]1C[C@H](F)CN1S(=O)(=O)c1cccc(C(F)(F)F)c1)N1CCCCC1,878 s
15,O=C(NC1CCN(c2cc(-c3ccc(F)cc3)[nH]n2)C1)c1ccccc1Cl (stereo not given),721 s
16,CCCN1C(=O)COc2ccc(-c3csc(NC(=O)CCC4CCCCC4)n3)cc21,1270 s
17,Cc1ccc(C2CCCN2C(=O)c2cc(-c3ccco3)on2)cc1 (stereo not given),1020 s
18,C[C@@]1(C(=O)Nc2ccc(F)nc2)CCCN1c1nc(Nc2cc(C3CC3)[nH]n2)c2cccn2n1,946 s
19,O=C1CCC2(CCN1)CCN(C(=O)C1CCCCC1)CC2,669 s

# Other lines, results leading:
row,RP-LC retention time,Compound
1,724 s,COc1cc(NC(=O)N2CCC(N3CCN(Cc4ccc(F)cc4)C(=O)C3=O)CC2)cc(OC)c1
2,763 s,COc1ccc(N2CCN(C(=O)C3CCCN(C(=O)c4[nH]c(C)cc4C)C3)CC2)cc1 (stereo not given)
3,862 s,Cc1ccc2c(c1)N(S(C)(=O)=O)CCC(C(=O)N1CCCCC1)O2 (stereo not given)
4,935 s,CS(=O)(=O)N1CCCc2cc(C(=O)NCCC3=CCCCC3)ccc21
5,630 s,CCn1c(CN2CCN(S(C)(=O)=O)CC2)nc2cc(NC(=O)CC(C)C)ccc21
6,1110 s,CCOc1ccccc1-c1nc(-c2ccc3nnn(CC)c3c2)no1
7,676 s,Clc1ccccc1-c1ccc(CNc2ncn[nH]2)o1
8,1170 s,Cc1ccc(N2C(=O)C3N=NN(Cc4nc(-c5ccc(OC(C)C)cc5)no4)C3C2=O)cc1Cl (stereo not given)
9,825 s,O=C(NCc1cccnc1)C1CCCN(S(=O)(=O)c2cc(-c3noc(C4CCC4)n3)cs2)C1 (stereo not given)
10,814 s,CCc1noc(NC(C)=O)c1-c1ccc(C)c(S(=O)(=O)NCc2ccc3c(c2)OCO3)c1
11,1020 s,COc1cc(OC)c(NS(=O)(=O)c2cc(-c3cc(C(F)(F)F)[nH]n3)sc2C)cc1Cl
12,1210 s,CCCOc1nc2ccccc2nc1N1CCCC(C(=O)Nc2ccc(Cl)cc2)C1 (stereo not given)
13,678 s,CCn1cc(C)c(C(=O)O)c1CC(=O)Nc1cccc(C)n1
14,580 s,Cc1cc2n(n1)CCC(=O)N2CCCC(=O)NCCCN1CCc2ccccc2C1
15,679 s,CCCOc1ccc(CN2CCN(C(=O)c3ccoc3)CC2)cn1
16,702 s,Cc1ccc(N2CC(c3nc(-c4ccc5c(c4)ncn5C)no3)CC2=O)cc1C (stereo not given)
17,605 s,Nc1n[nH]c(-c2ccc(Cl)cc2)n1

row,RP-LC retention time,Compound
1,796 s,Cc1ccc(CNC(=O)c2ccc3c(c2)Sc2ncccc2C(=O)N3C)cc1
2,700 s,Cc1ccccc1NC(=O)c1cnc2c(c1)c(=O)n(C)c(=O)n2-c1ccccc1
3,757 s,O=C(O)c1cccc(Nc2c(-c3ccc(Cl)cc3)nc3cnccn23)c1
4,856 s,CCc1ccc(OCc2nc(CCN(C)C(=O)Nc3ccc(OC)c(OC)c3)no2)cc1
5,702 s,COc1ccc(OC)c(S(=O)(=O)N(C)C)c1
6,797 s,O=C(Cn1c(=O)c(=O)n(Cc2ccccc2)c2ncccc21)NCCc1ccco1
7,595 s,Cc1ccc(CN2CCC3(CC2)CC(O)(c2ccccn2)CCO3)o1 (stereo not given)
8,698 s,CCc1ccccc1NC(=O)CN1C(=O)NC2(CCC(C)CC2)C1=O (stereo not given)
9,769 s,O=C(c1csc(S(=O)(=O)N2CCC(C(=O)N3CCCC3)CC2)c1)N1CCCCCC1
10,757 s,O=C(O[C@@H]1CN2CCC1CC2)N1CCc2ccccc2C1c1ccccc1 (stereo not given in full)
11,971 s,CCc1nc2cc(-c3noc(-c4ccnn4C)n3)ccc2o1
12,670 s,CC(=O)Nc1ccc(NC(=O)Cn2ccn3nc(-c4ccc(F)cc4)c(CO)c3c2=O)cc1
13,969 s,Cc1nc(CSc2cc(C)c3ccccc3n2)cs1
14,1050 s,Cc1cc(OCC(=O)NCc2cccs2)nc(-c2ccc(Cl)cc2)n1
15,576 s,Cc1noc(CN2CCN(C3CCN(Cc4cc(F)ccc4F)C3)C2=O)n1 (stereo not given)
16,710 s,COC(=O)c1nc(NC(=O)Cn2nc3c(cc2=O)CCCC3)sc1C
